Laboratory results published in patent US20220402883A1, “COMPOUNDS AND METHODS FOR MODULATING RNA FUNCTION” (Arrakis Therapeutics, Inc., priority 2016, published 2022).
Counter-ions that a name gives are not always drawn.

What was measured:
[1] = system: 17CAG and 41CAG RNA (httmRNA); assay: Ligand observed NMR binding assay for CAG repeat RNA; settings: 3 μM RNA, 200 μM compound, 288 K
Description: Following the above procedure, various tool and test compounds were assayed for binding. In a first series of experiments, compounds were tested for binding to 17CAG or 41CAG (sample was 3 μM in RNA). […] However, several of the compounds did show significant changes in their signals in the presence of the two RNA target species.
Purpose: Test direct binding of compounds for httmRNA (construct with 41 CAG repeats 474 nt) and others as described below. Ligand observed NMR assay to test direct binding of fragments to RNA target (e.g. construct with 41 CAG repeats 474 nt). Single compound hits were identified for further characterization by orthogonal assay (e.g. surface plasmon resonance, SPR). Ligand observed assay was used for primary screen and deconvolution into single fragment hits. Established experiments were eventually used for group epitope mapping.
This assay tests for direct binding of compounds to httmRNA and may be adapted for other repeat RNAs. Compounds are tested in pools (i.e. pool size of 12 fragments in each sample in the primary screen and smaller pool sizes during deconvolution and eventually single compound measurements).
Sample buffer: 10 mM Tris-HCl, pH 8.0, 0.78 g [MW: 157.56 g/mol]; 75 mM KCl, 2.79 g [MW: 74.55 g/mol]; 3 mM MgCl2, 0.14 g [MW: 95.21 g/mol]; fill up to 500 mL with Millipore H2O.
Dried RNA pellet is solubilized in sample buffer 10 mM Tris-HCl pH 8.0, 75 mM KCl, 3 mM MgCl2. RNA aliquot at 13.9 μM (stock concentration) is denatured at 95° C. for 3 min and snap-cooled on ice for 3 min, and refolded at 37° C. for 30 min.
Final concentrations in the sample: 200 μM each fragment and 3 μM RNA target molecule.
Sample is placed into magnet and temperature adjusted to 288 K. Spectrometer frequency at 600 MHz is matched and tuned. Magnetic field is shimmed to homogenize magnetic field around the sample.
Sequence of experiments includes a Proton 1D experiment with a Watergate sequence for water suppression, a WaterLOGSY (WLOGSY) and a 1D Saturation transfer difference (STD) experiment to test for direct binding of the compounds to the RNA.
Details for 1D Watergate experiment: For each 1D WATERGATE spectrum a total of 8192 complex points in f1 (^1H) with 128 scans were acquired (experiment time 4 min.). The spectral width was set to 16.66 ppm.
Details WLOGSY experiment: For the WLOGSY-spectrum, a total of 1024 complex points in f1 (^1H) with 256 scans were acquired (experiment time 25 min.). The carrier frequency for ^1H was set at the water resonance (˜4.7 ppm). The spectral width was set to 16.66 ppm in the direct dimension (^1H).
Details STD experiment: For the STD-spectrum, a total of 1024 complex points in f1 (^1H) with 1024 scans were acquired (experiment time 65 min.). The carrier frequency for ^1H was set at the water resonance (˜4.7 ppm). The spectral width was set to 16.66 ppm in the direct dimension (^1H). For the on-resonance experiments saturation is set to 2.0 sec at a saturation frequency of −2500 Hz. For the off-resonance experiment saturation frequency is set at 10200 Hz.
Python scripts were used to process all recorded spectra in the assay setup, screening and deconvolution process. Spectra were analyzed for direct binding signals of the compounds. Identified single compound hits were reported.

41CAG RNA (476 nt) = assay: NMR competition experiments (WaterLOGSY); format: binding; settings: 100 μM compound, 2.5 μM RNA
Description: Competition experiments were also performed. Test Sample: 2.5 μM 41CAG RNA (476 nt) was combined with the following: 100 μM HP-AC008002-E01 (A); +/−200-400 μM HP-AC008001-E02 (B); and +/−200-400 μM HP-AT005003-C03 (C). ^1H 1D Watergate & WaterLOGSY spectra recorded of HP-AC008002-E01 are used as a reference.
In a further experiment, as Test Sample 2.5 μM 41CAG RNA (476 nt) was used in the presence of: 100 μM HP-AC008001-E02 (B) or 100 μM HP-AT005003-C03 (C); +/−200-400 μM HP-AC008002-E01 (A). ^1H 1D Watergate and WaterLOGSY spectra recorded single cmpds were used as a reference.
In a further experiment, as Test Sample: 2.5 μM 41CAG RNA (476 nt) was used in the presence of: 100 μM HP-AC008001-E02 (B)+/−200-400 μM HP-AT005003-C03 (C). ^1H 1D Watergate & WaterLOGSY spectra recorded of single cmpd HP-AC008001-E02 were used as a reference.

[2] = system: 3WJ_0.0.0_5IB_3FAM RNA construct; assay: Fluorescence quenching binding assay (FAM / Iowa Black); settings: concentration dependent; effect at conc. >5 μM
Description: This assay will be used to test binding of compounds for RNA three way junction (such as a 38 nt construct). This is a fluorescence quenching assay utilizing FAM as fluorescence tag and Iowa Black as quencher. Tags are attached at the 3′ and 5′ end, respectively. Stable formation of MW upon compound binding would lead to quenching of the FAM fluorescence due to close proximity of the Iowa Black tag. Assay readout: FAM (485-520 nm) Fluorescence Intensity.
(§1) Assay sample buffer used: 10 mM CacoK pH 7.2, 30 mM NaCl. Buffer preparation in Dnase/Rnase Free distilled water (Gibco Life Technologies).
(§2) Dilute the RNA 1:10 (final 10 μM) in Assay Buffer.
(§3) Heat up the diluted RNA up to 90° C. for 5 min (sealed Eppendorf Tube).
(§4) Cool down the RNA probe slowly to RT.
(§5) Dilute the compounds to 800 μM in DMSO (Assay: 8 μM).
Final concentrations in the sample: 1-10 μM RNA, 8 μM compound, 1% DMSO
Pipet 25 μL Sample Solution into Greiner cat #784076, black, 384
Measure the 96 plate with the LightCycler480 (Channel: 485/520 nm).
Calibration of the expected fluorescence signal at various RNA concentrations in either CacoK or NaPO4 buffers was performed first. Experiments in buffers containing salt show distinct fluorescence quenching behavior. […]
First, two compounds (i.e. Ark000007 & Ark000008) were tested in the fluorescence quenching assay to assess concentration dependent influence on the fluorescence signal.

[3] = system: RNA3WJ_0.0.0_5IB_3FAM (3WJ_0.0.0_5IB_3FAM RNA construct); assay: Thermal shift binding assay; settings: for Melt. Temp. with cmpd / Shift melt. Temp.: RNA sequence 3WJ_0.0.0_5IB_FAM; for Melt. Temp. with cmpd: melting temperature in presence of compound; for Shift melt. Temp.: with cmpd minus without cmpd
Description: (§6) Purpose: Test binding of compounds for RNA three way junction (for example, a construct of 38 nt). Thermal shift assay based on established fluorescence quenching assay utilizing FAM as fluorescence tag and Iowa Black as quencher. Tags were attached at the 3′ and 5′ end, respectively. Stable formation of 3WJ upon compound binding would lead to quenching of the FAM fluorescence due to close proximity of the Iowa Black tag. Thermal unfolding leads to increase of fluorescence emission. Assay readout: FAM (465-510 nm) Thermal Shift.
as §1, §2, §3, §4
(§7) Dilute the compounds to 800 μM in DMSO (Assay: 8 μM). […]
(§8) Pipet 20 μL Sample Solution into Roche, Light Cycler480 Multiwell Plate96, white, REF 04729692001.
(§9) Measure the 96 plate with the LightCycler480 (Channel: 480/510 nm; Temperature: 41-91° C.).
(§10) Analyse measurement-data with the MeltingCurveGenotyping Mode.
(§11) Settings: Acquisition mode: continuous; Ramp rate: 0.1° C./sec; Acquisition: 6° C.
(§12) Curves are fitted with raw and normalized data.
(§13) Melting curves analysis show melting temperature (Tm) of ˜51° C. Range of RNA concentrations was tested and assay window was determined (conc. range of 0.5-1 μM yields best results). The choice of buffer also affected the Tm. RNA constructs were tested under different buffer conditions (especially in presence of salt) in the thermal shift assay. […] CacoK with 30 mM salt at 1 μM RNA conc. was used to assess compound effects on 3WJ stability. […] These conditions were used for screening test compounds.

RNA3WJ_3.0.0_5IB_3FAM = assay: Thermal shift binding assay; settings: RNA:ligand ratios 1:1, 1:3
Description: as §6, §1, §2, §3, §4, §7, §8, §9, §10, §11, §12, §13

[4] = system: RNA3WJ_1.0.0_5IB_3FAM (cis 3WJ with one unpaired nucleotide); assay: Thermal shift binding assay; settings: RNA:ligand ratios 1:1, 1:3
Description: as §6, §1, §2, §3, §4, §5
Final concentrations in the sample: 1 μM RNA, 8 μM compound, 1% DMSO
as §8, §9, §10, §11, §12, §13
Compounds Ark0000013 and Ark0000014 were also tested in the thermal shift assay against three RNA 3WJ constructs, A) RNA3WJ_1.0.0_5IB_3FAM (cis 3WJ with one unpaired nucleotide); B) Split3WJ.1_up_5IB+Split3WJ.1_down_3FAM (trans 3WJ as 1:1 mix); and C) Split3WJ.2_up_5IB+Split3WJ.2_down_3FAM (trans 3WJ as 1:1 mix).

[5] = competitor HP-AC008002-E01 200-400 μM (up to 1:4)
[6] = 1 μM RNA, 8 μM compound, 10 mM CacoK pH 7.2, 30 mM NaCl

SMILES	STD signal [1]	Melt. Temp. with cmpd [3] [°C]	Shift melt. Temp. [3]	other results
OCc1cccc(-c2cccnc2)c1 [HP-AC008002-E01]	distinct	–	–	WaterLOGSY signals in the presence of competitor (41CAG RNA (476 nt); competitor HP-AC008001-E02 or HP-AT005003-C03 200-400 μM (up to 1:4)): still observed
C#CCCCC(=O)NC[C@H]1O[C@H](O[C@H]2[C@H](O)[C@@H](O[C@H]3O[C@H](CO)[C@@H](O)[C@H](N)[C@H]3O)[C@H](N)C[C@@H]2N)[C@H](O)[C@@H](O)[C@@H]1O [Ark000008]	–	61.8	+0.6 °C	fluorescence quenching effect (FAM fluorescence signal) [2]: Only Ark000007 showed an increase of quenching effect; effect on melting temperature (in words) ([3]; 1 μM RNA, 8 μM compound): only a very small effect
O=C(c1ccc(Cl)cc1)N1CCN(c2ccc([N+](=O)[O-])c3ncccc23)CC1 [CPNQ, reference compound]	distinct	–	–	–
Cc1nn(-c2ccccc2)nc1CN [HP-AC008001-E02]	distinct	–	–	WaterLOGSY signals in the presence of competitor (41CAG RNA (476 nt); [5]): still observed; WaterLOGSY signals in the presence of competitor (41CAG RNA (476 nt); competitor HP-AT005003-C03 200-400 μM (up to 1:4)): still observed
NCc1ccc2ccccc2n1 [HP-AC008004-C07]	weak	–	–	–
[N-]=[N+]=NC[C@H]1O[C@H](O[C@@H]2[C@@H](O)[C@H](O[C@H]3O[C@H](CN)[C@@H](O)[C@H](O)[C@H]3O)[C@@H](N)C[C@H]2N)[C@H](O)[C@@H](N)[C@@H]1O [Ark000007, 6″-Azido-Kanamycin a Hydrochloride Salt]	–	65.6	+4.4 °C	fluorescence quenching effect (FAM fluorescence signal) [2]: increase of quenching effect; Melting temp + cmpd [3, 6]: 65.6 °C; Temp. Shift [3, 6]: ~5 °C
CN(CCCN)CCCNC(=O)c1ccccc1 [Ark000039]	–	60.3	−1.2 °C	effect in the melting curves (raw and normalized data) ([3]; RNA:ligand ratios 1:1, 1:3): no significant effect; effect in the melting curves (raw and normalized data) (RNA3WJ_3.0.0_5IB_3FAM): lack of effect; effect in the melting curves (raw and normalized data) [4]: lack of effect
CC(O)CNCc1ccc(-c2ccccc2)o1 (stereo not shown) [HP-AT005003-C03]	distinct	–	–	WaterLOGSY signals in the presence of competitor (41CAG RNA (476 nt); [5]): still observed
CN(CCOCCN(C)C(=O)[C@@H]1C[C@H](N=[N+]=[N-])CN1C(=O)c1ccc2c(=O)oc(=O)[nH]c2c1)C(=O)CCC12c3cc(NC(=O)CCCCCCCN)ccc3C(c3ccc(NC(=O)CCCCCCCN)cc31)c1ccc(NC(=O)CCCCCCCN)cc12 [ARK000034, N,N′,N″-(9-(3-((2-(2-((2S,4S)-4-azido-1-(2,4-dioxo-1,4-dihydro-2H-benzo[d][1,3]oxazine-7-carbonyl)-N-methylpyrrolidine-2-carboxamido)ethoxy)ethyl)(methyl)amino)-3-oxopropyl)-9,10-dihydro-9,10-[1,2]benzenoanthracene-2,7,15-triyl)tris(8-aminooctanamide)]	–	60.2	+0.3 °C	–
